From patent US5792622A, “Assay for chemicals” (priority 1995, dated 1998)
Values after ≈ are worked out from the molar mass of the structure shown. “Also recorded” adds a separate entry of the source. Read-outs that look alike come from different tables or passages of the source.

Experiments:
R. meliloti [1] = experiment: microbe, parasite or virus in culture; format: cell-based
[2] = cited from earlier work; for Microtox IC50: Table 8
fish (trout fingerlings) = settings: Table 8, trout fingerlings; cited from earlier work
E. coli = format: cell-based
S. typhimurium = format: cell-based
R. leguminosarum = format: cell-based
B. japonicum = format: cell-based
B. megaterium = format: cell-based
S. lactis = format: cell-based
Ps fluorescens = format: cell-based
R. meliloti [3] = format: cell-based
A. crystallopoites = format: cell-based
R. sphaeroides = format: cell-based
[4] = rhizobium meliloti mtt reduction
[5] = Sinorhizobium meliloti, Table 4, organic compounds, read-out: average (ppm), concentration giving 50% inhibition of dye reduction
[6] = ratio of the inhibitory concentrations
[7] = Sinorhizobium meliloti, read-out: Rhizobium/Tetrazolium IC50

[Cl-].[Na+] [NaCl, sodium chloride]
IC50 (R. meliloti [1]; FIG. 12, 10% NaCl solution): 60,689 ppm
IC50 volume (R. meliloti [1]; FIG. 12, 10% NaCl solution, 590 nm): 606.89 µL
absorbance reached (R. meliloti [1]; at 1000 μl of 10% NaCl solution, 590 nm): 0.1

[Ni] [Nickel]
Microtox ppm ([2]; microtox bioluminescence): 34
Rhizobium/Tetrazolium ppm (R. meliloti [1]; [4]): 49.3

Oc1c(Cl)c(Cl)c(Cl)c(Cl)c1Cl [Pentachlorophenol, pentachlorophenol]
Microtox IC50 [2]: 2.46-2.71 ppm
Microtox ppm ([2]; Table 9): 2.46-2.71 ppm
inhibition compared with trichlorophenol (R. meliloti [1]): an order of magnitude greater
absorbance at which the reduction stopped (R. meliloti [1]; A550, FIGS. 3 and 5): ≤ 0.25
IC50 (R. meliloti [1]; [5]): 0.206 µg/mL (≈ 0.773 µM)
IC50 (R. meliloti [1]; Sinorhizobium meliloti, Table 8, read-out: Rhizobium/Tetrazolium IC50): 0.143 µg/mL (≈ 0.537 µM)
sensitivity of Rhizobium/Tetrazolium assay compared with Microtox assay (R. meliloti [1]; [6]): at least an order of magnitude more sensitive for 4 compounds; also recorded: two orders of magnitude more sensitive

Oc1ccccc1 [Phenol]
Fish LD50 (50% death of the fish) (fish (trout fingerlings)): 50-100 ppm
Microtox ppm ([2]; microtox bioluminescence): 623
sensitivity of Rhizobium/Tetrazolium assay compared with Microtox assay (R. meliloti [1]): at least an order of magnitude more sensitive than the Rhizobium/Tetrazolium assay
IC50 (R. meliloti [1]; [7]): 1220 µg/mL (≈ 13000 µM)
IC50 (R. meliloti [1]; Sinorhizobium meliloti, read-out: average (ppm), concentration giving 50% inhibition of dye reduction): 1320 µg/mL (≈ 14000 µM)

O=c1ccc2[n+]([O-])c3ccc(O)cc3oc-2c1 [Resazurin, resazurin]
usefulness of dye reduction by E. coli (E. coli; protocol used with the tetrazolium dyes): did not yield useful results

[Se] [Selenium]
IC50 (R. meliloti [1]; Sinorhizobium meliloti, Table 7, minerals, read-out: ppm (50% inhibition of dye reduction)): 226 µg/mL (≈ 2860 µM)

CCCCCCCCCCCCOS(=O)(=O)[O-].[Na+] [Sodium lauryl sulfate]
IC50 (R. meliloti [1]; [5]): 30.4 µg/mL
IC50 (R. meliloti [1]; Sinorhizobium meliloti, Table 9, read-out: Rhizobium/Tetrazolium ppm): 31 µg/mL
sensitivity of Rhizobium/Tetrazolium assay compared with Microtox assay (R. meliloti [1]; [6]): at least an order of magnitude more sensitive than the Rhizobium/Tetrazolium assay

COc1cc(-c2ccc(-n3nc(-c4ccccc4)n[n+]3-c3ccccc3)c(OC)c2)ccc1-n1nc(-c2ccccc2)n[n+]1-c1ccccc1 [TB, 3,3'-[3,3'-dimethoxy(1,1'-biphenyl)-4,4'-diyl]-bis(2,5-diphenyl-2H-tetrazolium)dichloride]
absorbance of reduced dye (S. typhimurium; Table 1, incubation 2:00 hrs): 0.22
absorbance of reduced dye (R. leguminosarum; Table 1, incubation 7:48 hrs): 0
absorbance of reduced dye (B. japonicum; Table 1, incubation 7:48 hrs): 0.02
absorbance of reduced dye (B. megaterium; Table 1, incubation 2:00 hrs): 0.17
absorbance of reduced dye (E. coli; Table 1, incubation 1:40 hrs): 0.04
absorbance of reduced dye (S. lactis; Table 1, incubation 9:57 hrs): 0.04
absorbance of reduced dye (Ps fluorescens; Table 1, incubation 1:57 hrs): 0.05
absorbance of reduced dye (R. meliloti [3]; Table 1, incubation 2:00 hrs): 0.12
absorbance of reduced dye (A. crystallopoites; Table 1, incubation 2:00 hrs): 0.22

c1ccc(-c2nn(-c3ccccc3)[n+](-c3ccccc3)n2)cc1 [TTC, 2,3,5-triphenyltetrazolium chloride]
absorbance of reduced dye (S. typhimurium): 0.04
absorbance of reduced dye (R. leguminosarum): 0
absorbance of reduced dye (B. japonicum): 0.07
absorbance of reduced dye (B. megaterium): 0.1
absorbance of reduced dye (E. coli): 0.14
absorbance of reduced dye (S. lactis): 0.05
absorbance of reduced dye (R. sphaeroides): 0.12
absorbance of reduced dye (Ps fluorescens): 0.01
absorbance of reduced dye (R. meliloti [3]): 0.09
absorbance of reduced dye (A. crystallopoites): 0.09

c1ccc(-c2nn(-c3ccccc3)[n+](-c3cccc4ccccc34)n2)cc1 [TV, 2,5-diphenyl-3-(α-napthyl)tetrazolium chloride]
absorbance of reduced dye (S. typhimurium; Table 1, incubation 2:00 hrs): 0.04
absorbance of reduced dye (R. leguminosarum; Table 1, incubation 7:48 hrs): 0
absorbance of reduced dye (B. japonicum; Table 1, incubation 7:48 hrs): 0.14
absorbance of reduced dye (B. megaterium; Table 1, incubation 2:00 hrs): 0.07
absorbance of reduced dye (E. coli; Table 1, incubation 1:40 hrs): 0.03
absorbance of reduced dye (S. lactis; Table 1, incubation 9:57 hrs): 0.04
absorbance of reduced dye (R. sphaeroides; Table 1, incubation 11:25 hrs): 0.12
absorbance of reduced dye (Ps fluorescens; Table 1, incubation 1:57 hrs): 0.01
absorbance of reduced dye (R. meliloti [3]; Table 1, incubation 2:00 hrs): 0.08
rate of reduction of the dye (R. meliloti [3]; in words): reduced more slowly than MTT
absorbance of reduced dye (A. crystallopoites; Table 1, incubation 2:00 hrs): 0.08

Cc1ccccc1 [Toluene]
Fish LD50 (50% death of the fish) (fish (trout fingerlings)): 23 ppm
Microtox IC50 [2]: 33,833 ppm
Microtox ppm ([2]; Table 9): 18.0-33,833 ppm
IC50 (R. meliloti [1]; [7]): 590 µg/mL (≈ 6400 µM)
IC50 (R. meliloti [1]; Sinorhizobium meliloti, read-out: Rhizobium/Tetrazolium ppm): 30 to 502 µg/mL (≈ 326 to 5450 µM)
sensitivity of Rhizobium/Tetrazolium assay compared with Microtox assay (R. meliloti [1]; [6]): at least an order of magnitude more sensitive than the Rhizobium/Tetrazolium assay

[Zn] [Zinc]
Fish LD50 (50% death of the fish) (fish (trout fingerlings)): 0.24-7.20 ppm
Microtox IC50 [2]: 476 ppm
ppm (50% inhibition of dye reduction) (R. meliloti [1]; Table 7, minerals): 4.750 ppm
sensitivity of Rhizobium/Tetrazolium assay compared with Microtox assay (R. meliloti [1]; [6]): at least an order of magnitude more sensitive for 4 compounds

[Fe] [iron]
inhibitory effect on the reduction of tetrazolium dye (R. meliloti [1]): no inhibitory effect

O=C1NS(=O)(=O)c2ccccc21 [saccharin]
absorbance to which the reduction would eventually go (R. meliloti [1]): 0.0
IC50 (R. meliloti [1]; Sinorhizobium meliloti): 477 µg/mL (≈ 2600 µM)

ClC(Cl)=C(Cl)Cl [tetrachloroethylene]
IC50 (R. meliloti [1]; [5]): 34.8 µg/mL (≈ 210 µM)

ClC=C(Cl)Cl [trichloroethylene]
IC50 (R. meliloti [1]; [5]): 59.5 µg/mL (≈ 453 µM)

Mercury
Microtox ppm ([2]; microtox bioluminescence): 0.06
inhibition of tetrazolium reduction (R. meliloti [1]): inhibited tetrazolium reduction completely
ppm (50% inhibition of dye reduction) (R. meliloti [1]; [4]): 0.0179
